Reference: patent EP0587374A2, “Sulfated sterol glycosides and their use against viral infections” (VIROSTAT (NA) NV, priority 1992, dated 1994)
“And” between values parts separate entries of the source, which are not always exact repeats. Identical values can stand only once. Like-named read-outs stand apart in the source and are kept apart here.

How the values were obtained:
[1] = Method: The test animal received food and water without restriction.
On Tuesdays and Fridays blood samples were taken for blood chemistry, haematology and the measurement of trough plasma levels of the drug. These samples were taken prior to the administration of the drug, but at intervals as indicated in Figure 2 (which is a histogram of blood concentration levels against time) and Table 5. Blood samples were also taken 5, 10 and 15 minutes after drug adminstration in order to assess the peak plasma concentrations achieved. After 30 days the baboon was sacrificed and tissue samples were collected for testing.

Feline Herpes virus = conditions: 50 µg/mℓ
[2] = for Elimination half-life: open two-compartment model
Description: Two test animals were used. […] Anaesthesia was maintained with halothane. […] Twenty-five blood samples (1.5 mℓ each) were drawn from each test animal at intervals appropriate to the pharmacokinetic modelling. […]

blood clotting = conditions: 50 µg/mℓ, prothrombin time in vitro
Method: Prothrombin Time was measured according to standard techniques using CaCl₂, citrated-plasma and prothrombin.

[3] = tested on: Peripheral blood lymphocytes; test: In vitro cytotoxicity, Trypan Blue exclusion after 3 days of culture; conditions: for % Viability: 3 days, means of 4 counts
Method: Peripheral blood lymphocytes were prepared from normal blood. Cells were cultured for 3 days in complete medium [(RPMI, a commercially available so-called standard salt solution) + 10 % foetal calf serum (FCS) + […]] in the presence/absence of phytohemagglutinin (PHA). Duplicate wells were set up. Incubation was at 37°C and 5 % CO₂.
On the third day, cell viabilities were determined using the Trypan Blue exclusion test.
Those products which were water soluble, were made up at 8 mg/mℓ stocks in sterile distilled water and diluted 1:10 in RPMI medium and again diluted 1:10 directly in the wells containing the cells in complete medium. The final concentrations were thus 80 µg/mℓ. For the lower dilutions, the 8 mg/mℓ stock was diluted 1:2 or 1:4 or 1:8 in water before being diluted in the RPMI medium.
For those products which were DMSO-soluble, the stocks were made'up at 8 mg/mℓ in 100 % DMSO. This stock was diluted 1:10 in 100 % FCS and diluted 1:10 directly in the wells containing the cells in RPMI medium only. The final concentrations were thus 10 % FCS and 1 % DMSO. For the lower dilutions, the 8 mg/mℓ stock was diluted 1:2 or 1:4 or 1:8 with DMSO before the FCS dilution step.
This stock was diluted in water to yield a working stock of 2 mg/mℓ. The 2 mg/ml stock was diluted 1:20 or 1:10 or 1:5 or 1:2.5 in water and again 1:10 in the wells to give the 10, 20, 40 or 80 µg/mℓ final concentrations respectively.

[4] = tested on: Feline Infectious Peritonitis Virus
[5] = haematology summary, following initial drug administration

## CC[C@H](CC[C@@H](C)[C@H]1CC[C@H]2[C@@H]3CC=C4C[C@@H](O[C@@H]5O[C@H](COS(=O)(=O)O)[C@@H](OS(=O)(=O)O)[C@H](OS(=O)(=O)O)[C@H]5OS(=O)(=O)O)CC[C@]4(C)[C@H]3CC[C@]12C)C(C)C [BSSG-(SO₄⁻)₄, β-Sitosteryl β-D-glucoside tetra-sulphate]
[1]; 5 mg/kg i.v. daily, period of treatment
  behavioral characteristics: remained unchanged
[1]; 5 mg/kg i.v. daily, sample 3-4-92 (Fri: Pre IV), trough
  BSSG-³⁵(SO₄⁻)₄ PLASMA LEVEL: 56.0 µg/mL
[1]; 5 mg/kg i.v. daily, sample 7-4-92 (Tues: Pre IV), trough
  BSSG-³⁵(SO₄⁻)₄ PLASMA LEVEL: 71.0 µg/mL
[1]; 5 mg/kg i.v. daily, sample 10-4-92 (Fri: 10 min Post IV), peak
  BSSG-³⁵(SO₄⁻)₄ PLASMA LEVEL: 149.5 µg/mL
[1]; 5 mg/kg i.v. daily, sample 10-4-92 (Fri: Pre IV), trough
  BSSG-³⁵(SO₄⁻)₄ PLASMA LEVEL: 52.5 µg/mL
[1]; 5 mg/kg i.v. daily, sample 14-4-92 (Tues: 15 min Post IV), peak
  BSSG-³⁵(SO₄⁻)₄ PLASMA LEVEL: 149.7 µg/mL
[1]; 5 mg/kg i.v. daily, sample 14-4-92 (Tues: Pre IV), trough
  BSSG-³⁵(SO₄⁻)₄ PLASMA LEVEL: 65.0 µg/mL
[1]; 5 mg/kg i.v. daily, sample 15-4-92 (Wed: 4 hr Post IV)
  BSSG-³⁵(SO₄⁻)₄ PLASMA LEVEL: 72.5 µg/mL
[1]; 5 mg/kg i.v. daily, sample 27-3-92 (Fri: Pre IV), trough
  BSSG-³⁵(SO₄⁻)₄ PLASMA LEVEL: 60.3 µg/mL
[1]; 5 mg/kg i.v. daily, sample 31-3-92 (Tues: Pre IV), trough
  BSSG-³⁵(SO₄⁻)₄ PLASMA LEVEL: 59.0 µg/mL
[1]; 5 mg/kg i.v. daily, subsequent samples of the study period
  24-hour post-dose-trough plasma levels: > 50 µg/mL
[1]; 100 mg (5 mg/kg) i.v. daily Mon-Fri from 16-3-92, sample 24-3-92 (Tues: Pre IV), trough
  BSSG-³⁵(SO₄⁻)₄ PLASMA LEVEL: 33.8 µg/mL
[1]; after 30 days of 5 mg/kg i.v. daily
  autopsy findings: no organ discoloration or change in organ texture
[1]; blood chemistry twice a week, Table 6
  chemical pathology, overall conclusion: no direct proof that the changes occurring in time were due to direct toxicity of the substance
[1]; general decrease during drug administration from base-line 14.8
  Haemoglobin (Hb): 12.5 g/dL
[1]; general decrease during drug administration from base-line 43.4
  haematocrit (Hct): 36.9%
[1]; haematology summary, after the second week of drug administration, still present at the end
  monocyte count: Absolute monocytopaenia
[1]; haematology summary, following drug administration
  total white cell count: slight increase in total white cell count but within normal range
[1]; [5]
  lymphocyte count: transient absolute lymphocytosis
  platelet count: transient decrease in platelet count (but still within normal range)
[1]; haematology summary, supported by biochemical and bone marrow iron findings
  haemolysis (Hb and Hct trend): slight haemolysis
[1]; plasma, 5 mg/kg i.v. daily, sample 7-4-92 (Tues: Pre IV), before treatment 0.004, 0.005
  FREE HAEMOGLOBIN CONCENTRATION: 0.005 mg/dL
[1]; single daily i.v. injection of 5 mg/kg body mass over a month long period
  plasma levels of the drug sustained: 50 to 170 µg/mL
[1]; tissue samples after 30 days of 5 mg/kg i.v. daily
  histological findings: not severe and were fairly non-specific
[1]; trephine biopsy after 30 days, slightly lower than that of an adult man
  bone marrow cellularity: approximately 40%
[1]; ³⁵S isotope in urine samples and faeces, high levels in the bile
  major routes of excretion: via the kidney and the liver
Feline Herpes virus
  cytopathic effect of Feline Herpes virus: delayed by a day
[2]; High Dose (750 mg) i.v.
  Elimination half-life: 22 h
[2]; High Dose (750 mg), i.v. infusion 30 minutes, total dose 55.6 mg/kg
  Peak plasma concentration: 364 µg/mL
[2]; Low Dose (120 mg) i.v.
  Elimination half-life: 12 h
[2]; Low Dose (120 mg), i.v. infusion 15 minutes, total dose 7.14 mg/kg
  Peak plasma concentration: 102 µg/mL
[2]; baboon receiving the lower dose (120 mg i.v.)
  haemolysis in the blood samples: no evidence of haemolysis
[2]; high-dose test animal (750 mg i.v.)
  haemolysis in the blood samples: macroscopic evidence of haemolysis
[2]; i.v., range over the two doses (120 mg, 750 mg)
  plasma elimination half-life: 12 - 20 hours and 12 and 22 hours
[2]; intravenous administration, very high plasma concentrations
  haemodynamic effects: did not appear to be any deleterious haemodynamic effects
Blood clotting
  effect on blood clotting: did not affect blood clotting
[3]; Cells + PHA + 10 µg/mℓ
  % Viability: 80%
[3]; Cells + PHA + 20 µg/mℓ
  % Viability: 85%
[3]; Cells + PHA + 40 µg/mℓ
  % Viability: 82%
[3]; Cells + PHA + 80 µg/mℓ
  % Viability: 83%
[3]; from 10 to 80 µg/mℓ
  viability of test cells, trend with concentration: no tendency to toxicity
HIV-1; 50 µg/mℓ, from a number of tests
  inhibition of P24 protein synthesis: 80 - 100%
HIV-1; by extrapolation of the data in Table 3 (4 days), may vary with lymphocyte batch and HIV-1 titre
  concentration that inhibits P24 protein synthesis by 50%: 9 µg/mL
HIV-1; in terms of P24 protein production, Tables 1-3
  anti-HIV-1 effect (in words): marked anti-HIV-1 effects
HIV-1; test concentration 0.78 µg/mℓ, duration 4 days
  % INHIBITION OF P24 PROTEIN PRODUCTION: 4%
HIV-1; test concentration 3.125 µg/mℓ, duration 4 days
  % INHIBITION OF P24 PROTEIN PRODUCTION: 27%
HIV-1; test concentration 10 µg/mℓ, duration 6 days
  % INHIBITION OF P24 PROTEIN PRODUCTION: 55%
HIV-1; test concentration 12.5 µg/mℓ, duration 4 days
  % INHIBITION OF P24 PROTEIN PRODUCTION: 65%
HIV-1; test concentration 25 µg/mℓ, duration 4 days
  % INHIBITION OF P24 PROTEIN PRODUCTION: 61% and 88%
HIV-1; test concentration 25 µg/mℓ, duration 6 days
  % INHIBITION OF P24 PROTEIN PRODUCTION: 91%
HIV-1; test concentration 50 µg/mℓ, duration 4 days
  % INHIBITION OF P24 PROTEIN PRODUCTION: 83% and 96%
HIV-1; test concentration 50 µg/mℓ, duration 6 days
  % INHIBITION OF P24 PROTEIN PRODUCTION: 100%
HIV-1; test concentration 100 µg/mℓ, duration 4 days
  % INHIBITION OF P24 PROTEIN PRODUCTION: 99%
[4]; 5, 12.5, 25 and 50 µg/mℓ, 10²-, […]
  viral cytopathic effect: completely inhibited
[4]; without virus
  cytopathic effect of the drug alone: no cytopathic effect
